Assays:
Format in all cases: in vivo
[1] = test system: Amaranthus retroflexus (AMARE); assay: Test 1A glasshouse assay for herbicidal activity, post-emergence; details: 312 h, evaluated after 13 days, read-out: percentage phytotoxicity AMARE
Method in brief: (§1)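 Test plants grew from seed in standard soil under controlled glasshouse conditions (24/16 °C, 14 h light, 65% humidity) and received an aqueous acetone (50:50) spray with 0.5% Tween 20, either one day after sowing or after eight days. Damage was rated visually as percent phytotoxicity 13 days later.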

[2] = test system: Setaria faberi (SETFA); assay: as above; details: 312 h, evaluated after 13 days, read-out: percentage phytotoxicity SETFA
Method in brief: as §1

[3] = test system: Alopecurus myosuroides (ALOMY); assay: as above; details: 312 h, evaluated after 13 days, read-out: percentage phytotoxicity ALOMY
Method in brief: as §1

[4] = test system: Echinochloa crus-galli (ECHCG); assay: as above; details: 312 h, evaluated after 13 days, read-out: percentage phytotoxicity ECHCG
Method in brief: as §1

[5] = test system: Glycine max (GLXMA, soybean); assay: Test 1B glasshouse assay for herbicidal activity, post-emergence; details: 360 h
Method in brief: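 Soybean sprayed 1 day after sowing (pre-emergence) or at about 12 days (post-emergence) with aqueous active ingredient plus 0.2% v/v X-77 adjuvant. Plants grown at 24/18 °C day/night, 16 h light, 65% humidity. Visual % phytotoxicity (100% = total damage) scored at 20 DAA pre-emergence, 15 DAA post-emergence.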

[6] = test system: Lolium perenne (LOLPE); assay: as above; details: 360 h
Method in brief: (§2)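 Potted plants were sprayed one day after sowing (pre-emergence) or at about 12 days (post-emergence) with IF50 formulation diluted in 0.2% v/v X-77, with application rate varied. Plants grew at 20/16 °C day/night, 16 h light, 65% humidity. Percentage phytotoxicity was scored visually at 20 DAA (pre) or 15 DAA (post).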

[7] = test system: Avena fatua (AVEFA); assay: as above; details: 360 h
Method in brief: as §2

[8] = test system: Alopecurus myosuroides (ALOMY); assay: as above; details: 360 h
Method in brief: as §2

[9] = test system: Setaria faberi (SETFA); assay: as above; details: 360 h
Method in brief: (§3)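 Warm-climate glasshouse, 24/18° C., 16 h light, 65% humidity. Spray: IF50 (50 g/liter stock) in 0.2% v/v X-77; pre-emergence 1 day post-sowing, post-emergence ~12 days (10-13). Visual phytotoxicity 0-100%, at 15 DAA post, 20 DAA pre.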

[10] = test system: Digitaria sanguinalis (DIGSA); assay: as above; details: 360 h
Method in brief: as §3

[11] = test system: SORVU (Sorghum bicolor (L.) Moench ssp. Bicolor, or Sorghum vulgare Pers.); assay: as above; details: 360 h
Method in brief: as §3

[12] = test system: Brassica napus (BRSNN, rape); assay: Test 1B glasshouse assay for herbicidal activity, pre-emergence; details: 480 h, 20 DAA, read-out: percentage phytotoxicity BRSNN
Method in brief: (§4)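 Plants grown in soil at 20/16° C day/night, 16 h light, 65% humidity; sprayed after 1 day (pre-emergence) or ~12 days (post-emergence) with formulated compound in 0.2% v/v X-77 adjuvant. Visual % phytotoxicity scored 20 DAA (pre) or 15 DAA (post).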

[13] = test system: Triticum aestivum (TRZAW, winter wheat); assay: as above; details: 480 h, 20 DAA, read-out: percentage phytotoxicity TRZAW
Method in brief: as §4

[14] = test system: Echinochloa crus-galli (ECHCG); assay: Test 1B glasshouse assay for herbicidal activity, post-emergence; details: Echinochloa crus-galli
Method in brief: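 Plants grown about 12 days (10–13) in glasshouse (24/18 °C day/night, 16 h light, 65% humidity) then sprayed with IF50 formulation diluted in 0.2% v/v X-77 adjuvant at set application rates. Percent phytotoxicity scored visually 15 days after application (0 = no damage, 100 = total damage).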

Cc1cc(C#CCl)cc(C)c1C1C(=O)C2CCC(C2)C1=O (stereo not shown) [Compound A-6]
pest or weed control at 62.5 g/ha ([1]; 62.5 g/ha): 10% | pest or weed control at 250 g/ha [1]: 0% | pest or weed control at 62.5 g/ha ([2]; 62.5 g/ha): 90% | pest or weed control at 250 g/ha [2]: 90% | pest or weed control at 62.5 g/ha ([3]; 62.5 g/ha): 70% | pest or weed control at 250 g/ha [3]: 70% | pest or weed control at 62.5 g/ha ([4]; 62.5 g/ha): 100% | pest or weed control at 250 g/ha [4]: 100% | plant injury at 30 g/ha ([5]; 30 g/ha application rate): 0% | plant injury at 60 g/ha ([5]; 60 g/ha application rate): 0% | pest or weed control at 30 g/ha ([6]; 30 g/ha application rate): 40% | pest or weed control at 60 g/ha ([6]; 60 g/ha application rate): 70% | pest or weed control at 30 g/ha ([7]; 30 g/ha application rate): 50% | pest or weed control at 60 g/ha ([7]; 60 g/ha application rate): 60% | pest or weed control at 30 g/ha ([8]; 30 g/ha application rate): 50% | pest or weed control at 60 g/ha ([8]; 60 g/ha application rate): 50% | pest or weed control at 30 g/ha ([9]; 30 g/ha application rate): 100% | pest or weed control at 60 g/ha ([9]; 60 g/ha application rate): 100% | pest or weed control at 30 g/ha ([10]; 30 g/ha application rate): 100% | pest or weed control at 60 g/ha ([10]; 60 g/ha application rate): 100% | pest or weed control at 30 g/ha ([11]; 30 g/ha application rate): 90% | pest or weed control at 60 g/ha ([11]; 60 g/ha application rate): 90% | plant injury at 125 g/ha ([12]; 125 g/ha): 70% | plant injury at 125 g/ha ([13]; 125 g/ha): 10% | pest or weed control at 30 g/ha ([14]; 30 g/ha application rate): 90% | pest or weed control at 60 g/ha ([14]; 60 g/ha application rate): 90%

CC#Cc1cc(Cl)c(C2C(=O)C3CCC(C)(C2=O)C3(C)C)c(OC)c1 (stereo not shown) [Compound A-17]
pest or weed control at 250 g/ha [1]: 0% | pest or weed control at 250 g/ha [2]: 90% | pest or weed control at 250 g/ha [3]: 90% | pest or weed control at 250 g/ha [4]: 100% | plant injury at 250 g/ha ([5]; 250 g/ha application rate): 10% | pest or weed control at 250 g/ha ([6]; 250 g/ha application rate): 20% | pest or weed control at 250 g/ha ([7]; 250 g/ha application rate): 0% | pest or weed control at 250 g/ha ([8]; 250 g/ha application rate): 50% | pest or weed control at 250 g/ha ([9]; 250 g/ha application rate): 80% | pest or weed control at 250 g/ha ([10]; 250 g/ha application rate): 70% | pest or weed control at 250 g/ha ([11]; 250 g/ha application rate): 80% | plant injury at 250 g/ha ([12]; 250 g/ha): 0% | plant injury at 250 g/ha ([13]; 250 g/ha): 0% | pest or weed control at 250 g/ha ([14]; 250 g/ha application rate): 90%

— patent US9615577B2, “Herbicidally active cyclic dione compounds, or derivatives therefor, substituted by a phenyl which has an alkynyl-containing substituent” (Syngenta Limited, priority 2012, dated 2017)
